From PubChem BioAssay (NCI)
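Abbreviation: GI50, concentration required for 50% inhibition of growth. TGI is the concentration that stops growth completely.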

Key:
Assay in all cases: growth of human tumour cells (NCI), 384-well format
A498 renal = test system: A498 renal
OVCAR-5 ovarian = test system: OVCAR-5 ovarian
CAKI-1 renal = test system: CAKI-1 renal
A549 NSCLC = test system: A549 NSCLC
HCT-15 colon = test system: HCT-15 colon
NCI-H522 lung = test system: NCI-H522 lung
HL-60(TB) leukemia = test system: HL-60(TB) leukemia
SF-539 CNS = test system: SF-539 CNS
SNB-19 CNS = test system: SNB-19 CNS
SK-MEL-5 melanoma = test system: SK-MEL-5 melanoma
K-562 leukemia = test system: K-562 leukemia
DU-145 prostate = test system: DU-145 prostate
NCI-H226 lung = test system: NCI-H226 lung
MDA-MB-468 breast = test system: MDA-MB-468 breast
SK-MEL-28 melanoma = test system: SK-MEL-28 melanoma
HCT-116 colon = test system: HCT-116 colon
MDA-MB-435 melanoma = test system: MDA-MB-435 melanoma
KM12 colon = test system: KM12 colon
UACC-257 melanoma = test system: UACC-257 melanoma
SK-OV-3 ovarian = test system: SK-OV-3 ovarian
HCC-2998 colon = test system: HCC-2998 colon
U251 glioblastoma = test system: U251 glioblastoma
RPMI-8226 leukemia = test system: RPMI-8226 leukemia
ACHN renal = test system: ACHN renal
HOP-62 NSCLC = test system: HOP-62 NSCLC
LOX IMVI melanoma = test system: LOX IMVI melanoma
M14 melanoma = test system: M14 melanoma
RXF 393 renal = test system: RXF 393 renal
SN12C renal = test system: SN12C renal
EKVX NSCLC = test system: EKVX NSCLC

Molecule COc1nccc(-c2c(-c3ccc(F)cc3)ncn2C2CCC(O)CC2)n1 (centres undefined) has a GI50 (A498 renal) greater than 100 µM, a TGI (A498 renal) greater than 100 µM and a GI50 (OVCAR-5 ovarian) greater than 100 µM. The TGI (OVCAR-5 ovarian) was greater than 100 µM, the GI50 (CAKI-1 renal) was 31.7 µM and the TGI (CAKI-1 renal) was greater than 100 µM. For the same molecule, the GI50 (A549 NSCLC) was 39.2 µM, the TGI (A549 NSCLC) was greater than 100 µM and the GI50 (HCT-15 colon) was 58.7 µM. For the same molecule, the TGI (HCT-15 colon) was greater than 100 µM, the GI50 (NCI-H522 lung) was 22.6 µM and the TGI (NCI-H522 lung) was 93.5 µM. The GI50 (HL-60(TB) leukemia) was 77 µM, the TGI (HL-60(TB) leukemia) was greater than 100 µM and the GI50 (SF-539 CNS) was greater than 100 µM. For the same molecule, the TGI (SF-539 CNS) was greater than 100 µM, the GI50 (SNB-19 CNS) was greater than 100 µM and the TGI (SNB-19 CNS) was greater than 100 µM. It also gave a GI50 (SK-MEL-5 melanoma) of 90.3 µM, a TGI (SK-MEL-5 melanoma) greater than 100 µM and a GI50 (K-562 leukemia) of 36.1 µM. It also gave a TGI (K-562 leukemia) greater than 100 µM, a GI50 (DU-145 prostate) greater than 100 µM and a TGI (DU-145 prostate) greater than 100 µM. For the same molecule, the GI50 (NCI-H226 lung) was 91.2 µM, the TGI (NCI-H226 lung) was greater than 100 µM and the GI50 (MDA-MB-468 breast) was 13.2 µM. It also gave a TGI (MDA-MB-468 breast) greater than 100 µM, a GI50 (SK-MEL-28 melanoma) greater than 100 µM and a TGI (SK-MEL-28 melanoma) greater than 100 µM. It also gave a GI50 (HCT-116 colon) greater than 100 µM, a TGI (HCT-116 colon) greater than 100 µM and a GI50 (MDA-MB-435 melanoma) greater than 100 µM. The TGI (MDA-MB-435 melanoma) was greater than 100 µM, the GI50 (KM12 colon) was greater than 100 µM and the TGI (KM12 colon) was greater than 100 µM. It also gave a GI50 (UACC-257 melanoma) greater than 100 µM, a TGI (UACC-257 melanoma) greater than 100 µM and a GI50 (SK-OV-3 ovarian) of 62.5 µM. For the same molecule, the TGI (SK-OV-3 ovarian) was greater than 100 µM, the GI50 (HCC-2998 colon) was greater than 100 µM and the TGI (HCC-2998 colon) was greater than 100 µM. For the same molecule, the GI50 (U251 glioblastoma) was greater than 100 µM, the TGI (U251 glioblastoma) was greater than 100 µM and the GI50 (RPMI-8226 leukemia) was 90.1 µM. For the same molecule, the TGI (RPMI-8226 leukemia) was greater than 100 µM, the GI50 (ACHN renal) was 36.3 µM and the TGI (ACHN renal) was greater than 100 µM. For the same molecule, the GI50 (HOP-62 NSCLC) was greater than 100 µM, the TGI (HOP-62 NSCLC) was greater than 100 µM and the GI50 (LOX IMVI melanoma) was greater than 100 µM. For the same molecule, the TGI (LOX IMVI melanoma) was greater than 100 µM, the GI50 (M14 melanoma) was greater than 100 µM and the TGI (M14 melanoma) was greater than 100 µM. It also gave a GI50 (RXF 393 renal) greater than 100 µM, a TGI (RXF 393 renal) greater than 100 µM and a GI50 (SN12C renal) greater than 100 µM. It also gave a TGI (SN12C renal) greater than 100 µM and a GI50 (EKVX NSCLC) greater than 100 µM.
